In ChEMBL document CHEMBL5303573, “Mapping human microbiome drug metabolism by gut bacteria and their genes” (Nature, 2019):

Columns and labels:
[1] = bacteroides thetaiotaomicron, 12 h, 2 µM
Description: The drug is tested on Bacteroides thetaiotaomicron strain: 3731 for biotransformation. The drug concentrations were measured before and after a 12-h incubation by liquid-chromatography-coupled mass spectrometry (LC–MS)

[2] = bifidobacterium adolescentis, 12 h, 2 µM
Description: The drug is tested on Bifidobacterium adolescentis strain: ATCC 15703 for biotransformation. The drug concentrations were measured before and after a 12-h incubation by liquid-chromatography-coupled mass spectrometry (LC–MS)

[3] = roseburia intestinalis, 12 h, 2 µM
Description: The drug is tested on Roseburia intestinalis strain: L1-82 for biotransformation. The drug concentrations were measured before and after a 12-h incubation by liquid-chromatography-coupled mass spectrometry (LC–MS)

[4] = The drug is tested on Clostridium sp. strain: fecal isolate for biotransformation. The drug concentrations were measured before and after a 12-h incubation by liquid-chromatography-coupled mass spectrometry (LC–MS); details: 2 µM
[5] = The drug is tested on Clostridium scindens strain: ATCC35704 for biotransformation. The drug concentrations were measured before and after a 12-h incubation by liquid-chromatography-coupled mass spectrometry (LC–MS); details: 2 µM
[6] = The drug is tested on Eubacterium ventriosum strain: ATCC27560 for biotransformation. The drug concentrations were measured before and after a 12-h incubation by liquid-chromatography-coupled mass spectrometry (LC–MS); type: ADME; set-up: dose 2 uM, timepoint 0 vs 12 hours; details: 2 µM
[7] = The drug is tested on Ruminococcus torques strain: ATCC27756 for biotransformation. The drug concentrations were measured before and after a 12-h incubation by liquid-chromatography-coupled mass spectrometry (LC–MS); type: ADME; set-up: dose 2 uM, timepoint 0 vs 12 hours; details: 2 µM
[8] = The drug is tested on Bifidobacterium longum subsp. Infantis strain: CCUG52486 for biotransformation. The drug concentrations were measured before and after a 12-h incubation by liquid-chromatography-coupled mass spectrometry (LC–MS); details: 2 µM
[9] = The drug is tested on Collinsella aerofaciens strain: ATCC25986 for biotransformation. The drug concentrations were measured before and after a 12-h incubation by liquid-chromatography-coupled mass spectrometry (LC–MS); details: 2 µM
[10] = The drug is tested on Eubacterium hallii strain: DSM3353 for biotransformation. The drug concentrations were measured before and after a 12-h incubation by liquid-chromatography-coupled mass spectrometry (LC–MS); details: anaerobutyricum hallii, 2 µM
[11] = The drug is tested on Blautia luti strain: DSM14534 for biotransformation. The drug concentrations were measured before and after a 12-h incubation by liquid-chromatography-coupled mass spectrometry (LC–MS); type: ADME; set-up: dose 2 uM, timepoint 0 vs 12 hours; details: 2 µM
[12] = The drug is tested on Clostridium sporogenes strain: ATCC15579 for biotransformation. The drug concentrations were measured before and after a 12-h incubation by liquid-chromatography-coupled mass spectrometry (LC–MS); details: 2 µM
[13] = bacteroides fragilis, 12 h, 2 µM
Description: The drug is tested on Bacteroides fragilis strain: NCTC 9343 for biotransformation. The drug concentrations were measured before and after a 12-h incubation by liquid-chromatography-coupled mass spectrometry (LC–MS)

[14] = The drug is tested on Bifidobacterium ruminantium strain: fecal isolate for biotransformation. The drug concentrations were measured before and after a 12-h incubation by liquid-chromatography-coupled mass spectrometry (LC–MS); details: 2 µM
[15] = The drug is tested on Bacteroides dorei strain: DSM17855 for biotransformation. The drug concentrations were measured before and after a 12-h incubation by liquid-chromatography-coupled mass spectrometry (LC–MS); details: phocaeicola dorei, 2 µM
[16] = The drug is tested on Bacteroides ovatus strain: ATCC8483 for biotransformation. The drug concentrations were measured before and after a 12-h incubation by liquid-chromatography-coupled mass spectrometry (LC–MS); details: 2 µM
[17] = The drug is tested on Ruminococcus lactaris strain: ATCC29176 for biotransformation. The drug concentrations were measured before and after a 12-h incubation by liquid-chromatography-coupled mass spectrometry (LC–MS); details: 2 µM
[18] = bacteroides fragilis, 12 h, 2 µM; remark: listed apart in the source
Description: The drug is tested on Bacteroides fragilis strain: 3397 (T10) for biotransformation. The drug concentrations were measured before and after a 12-h incubation by liquid-chromatography-coupled mass spectrometry (LC–MS)

[19] = The drug is tested on Bifidobacterium breve strain: DSM20213 for biotransformation. The drug concentrations were measured before and after a 12-h incubation by liquid-chromatography-coupled mass spectrometry (LC–MS); details: 2 µM

## COc1cc2nc(N(C)CCCNC(=O)C3CCCO3)nc(N)c2cc1OC (centres undefined) [ALFUZOSIN]
[1]
  Bacterial Biotransformation: Compound NOT metabolized
[2]
  Bacterial Biotransformation: Compound NOT metabolized
[3]
  Bacterial Biotransformation: Compound NOT metabolized
[4]
  Bacterial Biotransformation: Compound NOT metabolized
[5]
  Bacterial Biotransformation: Compound NOT metabolized
[6]
  Bacterial Biotransformation: Compound NOT metabolized
[7]
  Bacterial Biotransformation: Compound NOT metabolized
[8]
  Bacterial Biotransformation: Compound NOT metabolized
[9]
  Bacterial Biotransformation: Compound NOT metabolized
[10]
  Bacterial Biotransformation: Compound NOT metabolized
[11]
  Bacterial Biotransformation: Compound NOT metabolized
[12]
  Bacterial Biotransformation: Compound NOT metabolized
[13]
  Bacterial Biotransformation: Compound NOT metabolized
[14]
  Bacterial Biotransformation: Compound NOT metabolized
[15]
  Bacterial Biotransformation: Compound metabolized
[16]
  Bacterial Biotransformation: Compound NOT metabolized

## Br.CN1CCC[C@@H]1Cc1c[nH]c2ccc(CCS(=O)(=O)c3ccccc3)cc12 [ELETRIPTAN HYDROBROMIDE]
[2]
  Bacterial Biotransformation: Compound NOT metabolized
[17]
  Bacterial Biotransformation: Compound NOT metabolized
[3]
  Bacterial Biotransformation: Compound NOT metabolized
[4]
  Bacterial Biotransformation: Compound NOT metabolized
[5]
  Bacterial Biotransformation: Compound NOT metabolized
[6]
  Bacterial Biotransformation: Compound NOT metabolized
[7]
  Bacterial Biotransformation: Compound NOT metabolized
[8]
  Bacterial Biotransformation: Compound NOT metabolized
[9]
  Bacterial Biotransformation: Compound NOT metabolized
[10]
  Bacterial Biotransformation: Compound NOT metabolized
[11]
  Bacterial Biotransformation: Compound NOT metabolized
[18]
  Bacterial Biotransformation: Compound NOT metabolized
[12]
  Bacterial Biotransformation: Compound NOT metabolized
[13]
  Bacterial Biotransformation: Compound NOT metabolized
[14]
  Bacterial Biotransformation: Compound NOT metabolized
[15]
  Bacterial Biotransformation: Compound NOT metabolized
[16]
  Bacterial Biotransformation: Compound NOT metabolized

## c1ccc2[nH]c(-c3cscn3)nc2c1 [THIABENDAZOLE]
[19]
  Bacterial Biotransformation: Compound NOT metabolized
[2]
  Bacterial Biotransformation: Compound NOT metabolized
[17]
  Bacterial Biotransformation: Compound NOT metabolized
[3]
  Bacterial Biotransformation: Compound NOT metabolized
[4]
  Bacterial Biotransformation: Compound NOT metabolized
[5]
  Bacterial Biotransformation: Compound NOT metabolized
[6]
  Bacterial Biotransformation: Compound NOT metabolized
[7]
  Bacterial Biotransformation: Compound NOT metabolized
[8]
  Bacterial Biotransformation: Compound NOT metabolized
[9]
  Bacterial Biotransformation: Compound NOT metabolized
[10]
  Bacterial Biotransformation: Compound NOT metabolized
[11]
  Bacterial Biotransformation: Compound NOT metabolized
[18]
  Bacterial Biotransformation: Compound NOT metabolized
[12]
  Bacterial Biotransformation: Compound NOT metabolized
[14]
  Bacterial Biotransformation: Compound NOT metabolized
[15]
  Bacterial Biotransformation: Compound NOT metabolized

## CCN(C(C)=O)c1cccc(-c2ccnc3c(C#N)cnn23)c1 [ZALEPLON]
[19]
  Bacterial Biotransformation: Compound NOT metabolized
[17]
  Bacterial Biotransformation: Compound NOT metabolized
[4]
  Bacterial Biotransformation: Compound metabolized
[5]
  Bacterial Biotransformation: Compound NOT metabolized
[6]
  Bacterial Biotransformation: Compound NOT metabolized
[7]
  Bacterial Biotransformation: Compound NOT metabolized
[9]
  Bacterial Biotransformation: Compound NOT metabolized
[10]
  Bacterial Biotransformation: Compound NOT metabolized
[11]
  Bacterial Biotransformation: Compound NOT metabolized
[18]
  Bacterial Biotransformation: Compound NOT metabolized
[12]
  Bacterial Biotransformation: Compound NOT metabolized
[13]
  Bacterial Biotransformation: Compound metabolized
[14]
  Bacterial Biotransformation: Compound NOT metabolized
[15]
  Bacterial Biotransformation: Compound metabolized
[16]
  Bacterial Biotransformation: Compound NOT metabolized
